Measured values: ChEMBL document CHEMBL1133821, “Synthesis and antiinflammatory, analgesic activity of 3,3'-(1,2-ethanediyl)-bis[2-aryl-4-thiazolidinone] chiral compounds. Part 10” (Bioorg Med Chem Lett, 2001)

Columns and labels:
Rattus norvegicus [1] = assay: Animals with Hyperemia in Carrageenan-induced paw edema test at a dose of 100 mg/kg perorally in rats; format: functional; conditions: route oral
Rattus norvegicus [2] = assay: Percent Edema variation in Carrageenan-induced paw edema test at a dose of 50 mg/kg perorally in rats after 120 min; format: functional; conditions: route oral
Rattus norvegicus [3] = assay: Percent Edema variation in Carrageenan-induced paw edema test at a dose of 50 mg/kg perorally in rats after 180 min (p<0.01); format: functional; conditions: route oral
Rattus norvegicus [4] = assay: Reaction time in Hot plate test at a dose of 50 mg/kg perorally in rats after 120 min (p<0.01); format: functional; conditions: route oral
Rattus norvegicus [5] = assay: Reaction time in Hot plate test at a dose of 50 mg/kg perorally in rats after 180 min (p<0.01); format: functional; conditions: route oral
Rattus norvegicus [6] = assay: Reaction time in Hot plate test at a dose of 50 mg/kg perorally in rats after 60 min (p<0.01); format: functional; conditions: route oral
Rattus norvegicus [7] = assay: Analgesic activity was determined using acetic acid writing test at a dose of 50 mg/kg perorally in rats. (p<0.01); format: functional; conditions: route oral
Rattus norvegicus [8] = assay: Number of writhings in Acetic acid Writhing test at a dose of 50 mg/kg perorally in rats; format: functional; conditions: route oral
[9] = Peroral dose causing 50% death of the mice population; format: ADME, organism-based; conditions: mouse, in vivo, po
Rattus norvegicus [10] = assay: (§1) Animals with Ulcers in Carrageenan-induced paw edema test at a dose of 50 mg/kg perorally in rats; format: functional; conditions: route oral
Rattus norvegicus [11] = assay: (§2) Percent Edema variation in Carrageenan-induced paw edema test at a dose of 50 mg/kg perorally in rats after 60 min; format: functional; conditions: route oral
Rattus norvegicus [12] = assay: Animals with Ulcers in Carrageenan-induced paw edema test at a dose of 100 mg/kg perorally in rats; format: functional; conditions: route oral
Rattus norvegicus [13] = assay: Percent Edema variation in Carrageenan-induced paw edema test at a dose of 100 mg/kg perorally in rats after 120 min; format: functional; conditions: route oral
Rattus norvegicus [14] = assay: Percent Edema variation in Carrageenan-induced paw edema test at a dose of 100 mg/kg perorally in rats after 180 min (p<0.01); format: functional; conditions: route oral
Rattus norvegicus [15] = assay: Percent Edema variation in Carrageenan-induced paw edema test at a dose of 100 mg/kg perorally in rats after 60 min; format: functional; conditions: route oral
Rattus norvegicus [16] = assay: Reaction time in Hot plate test at a dose of 100 mg/kg perorally in rats after 180 min; format: functional; conditions: route oral
Rattus norvegicus [17] = assay: Analgesic activity was determined using acetic acid writing test at a dose of 100 mg/kg perorally in rats. (p<0.01); format: functional; conditions: route oral
Rattus norvegicus [18] = assay: Reaction time in Hot plate test at a dose of 100 mg/kg perorally in rats after 120 min; format: functional; conditions: route oral
Rattus norvegicus [19] = assay: Number of writhings in Acetic acid Writhing test at a dose of 100 mg/kg perorally in rats(p<0.05); format: functional; conditions: route oral
[20] = Minimum concentration which causes 50% of the Artemia salina larvae to lose mobility; format: ADME, organism-based; conditions: in vivo
Rattus norvegicus [21] = assay: Reaction time in Hot plate test at a dose of 100 mg/kg perorally in rats after 60 min (p<0.05); format: functional; conditions: route oral
Rattus norvegicus [22] = assay: Percent Edema variation in Carrageenan-induced paw edema test at a dose of 100 mg/kg perorally in rats after 120 min (p<0.001); format: functional; conditions: route oral
[23] = Percent Edema variation in Carrageenan-induced paw edema test at a dose of 50 mg/kg perorally in rats after 120 min (p<0.01); format: functional; conditions: route oral
Rattus norvegicus [24] = assay: Percent Edema variation in Carrageenan-induced paw edema test at a dose of 100 mg/kg perorally in rats after 180 min (p<0.001); format: functional; conditions: route oral
Rattus norvegicus [25] = assay: Analgesic activity was determined using acetic acid writing test at a dose of 100 mg/kg perorally in rats.(p<0.05); format: functional; conditions: route oral
Rattus norvegicus [26] = assay: Number of writhings in Acetic acid Writhing test at a dose of 100 mg/kg perorally in rats; format: functional; conditions: route oral
[27] = (§3) Animals with Hyperemia in Carrageenan-induced paw edema test at a dose of 50 mg/kg perorally in rats; format: functional; conditions: route oral
[28] = as §1; format: functional; conditions: route oral
[29] = Percent Edema variation in Carrageenan-induced paw edema test at a dose of 50 mg/kg perorally in rats after 180 min (p<0.001); format: functional; conditions: route oral
[30] = as §2; format: functional; conditions: route oral
Rattus norvegicus [31] = assay: Percent Edema variation in Carrageenan-induced paw edema test at a dose of 100 mg/kg perorally in rats after 180 min; format: functional; conditions: route oral
Rattus norvegicus [32] = assay: Percent Edema variation in Carrageenan-induced paw edema test at a dose of 100 mg/kg perorally in rats after 60 min (p<0.001); format: functional; conditions: route oral
Rattus norvegicus [33] = assay: Percent Edema variation in Carrageenan-induced paw edema test at a dose of 50 mg/kg perorally in rats after 180 min; format: functional; conditions: route oral
Rattus norvegicus [34] = assay: Percent Edema variation in Carrageenan-induced paw edema test at a dose of 50 mg/kg perorally in rats after 60 min (p<0.01); format: functional; conditions: route oral
Rattus norvegicus [35] = assay: Reaction time in Hot plate test at a dose of 100 mg/kg perorally in rats after 60 min; format: functional; conditions: route oral
Rattus norvegicus [36] = assay: Analgesic activity was determined using acetic acid writing test at a dose of 100 mg/kg perorally in rats.; format: functional; conditions: route oral
Rattus norvegicus [37] = assay: as §3; format: functional; conditions: route oral

CCCCC1C(=O)N(c2ccccc2)N(c2ccccc2)C1=O [PHENYLBUTAZONE]
Animals (Rattus norvegicus [1]): 100%
Edema variation (Rattus norvegicus [2]): -5.25%
Edema variation (Rattus norvegicus [3]): -39.02%
Reaction time (Rattus norvegicus [4]): 30 s
Reaction time (Rattus norvegicus [5]): 31.7 s
Reaction time (Rattus norvegicus [6]): 28.3 s
inhibition in vivo at 50 mg/kg (Rattus norvegicus [7]): 82%
No. of writhings (Rattus norvegicus [8]): 3.6
LD50 [9]: 300 mg/kg
Animals (Rattus norvegicus [10]): 80%
Edema variation (Rattus norvegicus [11]): -20.27%

Cc1cccc([C@H]2SCC(=O)N2CCN2C(=O)CS[C@H]2c2cccc(C)c2)c1
Animals (Rattus norvegicus [1]): 80%
Animals (Rattus norvegicus [12]): 20%
Edema variation (Rattus norvegicus [13]): -13.05%
Edema variation (Rattus norvegicus [14]): -55.81%
Edema variation (Rattus norvegicus [15]): 25.6%
Reaction time (Rattus norvegicus [16]): 11 s
inhibition in vivo at 100 mg/kg (Rattus norvegicus [17]): 64%
Reaction time (Rattus norvegicus [18]): 11.1 s
No. of writhings (Rattus norvegicus [19]): 7.3
LC50 [20]: > 1000 mg/L
LD50 [9]: > 1000 mg/kg
Reaction time (Rattus norvegicus [21]): 18.4 s

COc1ccc([C@H]2SCC(=O)N2CCN2C(=O)CS[C@H]2c2ccc(OC)cc2)cc1
Animals (Rattus norvegicus [1]): 40%
Animals (Rattus norvegicus [12]): 0%
Edema variation (Rattus norvegicus [22]): -75.9%
Edema variation [23]: -49%
Edema variation (Rattus norvegicus [24]): -96.42%
Edema variation (Rattus norvegicus [15]): 20.23%
Reaction time (Rattus norvegicus [16]): 15 s
inhibition in vivo at 100 mg/kg (Rattus norvegicus [25]): 44%
Reaction time (Rattus norvegicus [18]): 15.6 s
No. of writhings (Rattus norvegicus [26]): 11.3
LC50 [20]: > 1000 mg/L
LD50 [9]: > 1000 mg/kg
Animals [27]: 20%
Animals [28]: 0%
Edema variation [29]: -66.97%
Edema variation [30]: 14.08%
Reaction time (Rattus norvegicus [21]): 17 s

COc1cccc([C@H]2SCC(=O)N2CCN2C(=O)CS[C@H]2c2cccc(OC)c2)c1
Animals (Rattus norvegicus [1]): 20%
Animals (Rattus norvegicus [12]): 0%
Edema variation (Rattus norvegicus [13]): -12.7%
Edema variation (Rattus norvegicus [31]): 20.1%
Edema variation (Rattus norvegicus [32]): -65.3%
Edema variation (Rattus norvegicus [2]): -8.15%
Edema variation (Rattus norvegicus [33]): 29.59%
Edema variation (Rattus norvegicus [34]): -38.29%
Reaction time (Rattus norvegicus [16]): 10.7 s
Reaction time (Rattus norvegicus [35]): 12.1 s
inhibition in vivo at 100 mg/kg (Rattus norvegicus [36]): 60%
Reaction time (Rattus norvegicus [18]): 12 s
No. of writhings (Rattus norvegicus [26]): 8.1
LC50 [20]: > 1000 mg/L
LD50 [9]: > 1000 mg/kg
Animals (Rattus norvegicus [37]): 20%
Animals (Rattus norvegicus [10]): 0%
